# Reference: ChEMBL document CHEMBL1201862, “PubChem BioAssay data set” (2004)
# The source made the active and inactive calls.
# Key:
# [1] = blockers of HIV-1 envelope-mediated cell-cell fusion – cherry-pick, dose response (AID 652057); format: functional, cell-based
# [2] = blockers of HIV-1 ZM109 envelope-driven cell-cell fusion – HeLa effector, CEM target cells, luciferase, cherry-pick, dose response (AID 652058); format: functional, cell-based;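 further: luciferase signal from HIV-1 Env mediated cell-cell fusion of effector and target cells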
# [3] = HIV-1 AD8 envelope cell-cell fusion blockers – cherry-pick, dose response (AID 652062); format: functional, cell-based;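 further: luciferase signal from cell-cell fusion driven by HIV-1 clade B AD8 Env; potency is for inhibitors of fusion seen as a drop in luminescence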
# [4] = viability loss in CEM21 cells – cell-based, CellTiter-Glo luminescence, cherry-picked, cytotoxicity control for viral fusion inhibitor project, dose response (AID 652042); format: functional;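 further: potency for signal decrease meaning cytotoxicity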
# [5] = Trypanosoma cruzi growth suppression in host cells – NIH3T3 host cells, beta-gal luminescence, confirmation (AID 2044); format: functional, cell-based;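 further: intracellular parasites grown in NIH/3T3 mouse fibroblasts as host cells; luminescent beta-galactosidase reporter signal from transgenic T. cruzi replicating inside host cells; inhibitors lower the luminescence signal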
# [6] = NIH3T3 cell viability loss – ATP luminescence, mouse fibroblasts, counter-screen, dose response (AID 2010); format: functional, cell-based;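 further: cells exposed to compound for about 90 hours before reading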
# [7] = test system: Streptococcus sp. 'group A'; assay: Streptococcus pyogenes SK(-)GAS viability under kanamycin – luminescence, BacTiterGlo, confirmation, counter-screen for streptokinase expression inhibitor project, dose response (AID 1900); format: functional, organism-based
# Streptokinase A = molecular target: T1, Streptokinase A (Streptococcus pyogenes serotype M1, UniProt P10520); assay: viability-normalized secreted streptokinase activity reduction – plasminogen activation absorbance, OD405, dose response (AID 1914); format: functional, Streptococcus pyogenes M1 GAS;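 further: secreted streptokinase activity via plasminogen activation per viability signal from cell pellet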
# T1 sequence (P10520 whole entry): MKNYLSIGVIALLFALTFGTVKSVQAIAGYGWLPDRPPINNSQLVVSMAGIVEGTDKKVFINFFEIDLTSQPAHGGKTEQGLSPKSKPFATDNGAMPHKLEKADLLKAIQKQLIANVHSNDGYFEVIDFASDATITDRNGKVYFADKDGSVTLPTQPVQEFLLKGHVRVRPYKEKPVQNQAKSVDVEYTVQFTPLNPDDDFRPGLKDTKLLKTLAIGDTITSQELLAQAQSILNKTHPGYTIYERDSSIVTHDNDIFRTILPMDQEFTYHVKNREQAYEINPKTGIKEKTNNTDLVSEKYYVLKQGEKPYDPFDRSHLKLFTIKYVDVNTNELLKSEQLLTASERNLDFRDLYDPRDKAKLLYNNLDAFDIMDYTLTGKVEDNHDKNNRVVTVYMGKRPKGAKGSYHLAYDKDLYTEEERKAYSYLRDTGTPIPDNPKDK
# Streptococcus = assay: GAS UMAA2166 growth inhibition – luminescence, BacTiterGlo, counter-screen for streptokinase expression inhibitor project, dose response (AID 1915); format: functional, organism-based;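 further: potency for reduction of bacterial viability or growth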
# [8] = bead-based luminescence quenchers, dual-tagged ARNT – biochemical, AlphaScreen, cherry-pick, artefact control for ARNT-TACC3 interaction inhibitor project, dose response (AID 651705); format: functional;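 further: AlphaScreen bead proximity signal that flags compounds interfering with the detection technology; potency reflects signal decrease which marks the compound as an assay artifact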
# Cytochrome P450 2C9 = Cytochrome P450 2C9 (Homo sapiens, UniProt P11712)
# Cytochrome P450 1A2 = molecular target: T2, Cytochrome P450 1A2 (Homo sapiens, UniProt P05177);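 further: PubChem cytochrome P450 panel assay, CYP1A2 panel member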
# T2 sequence (P05177 whole entry): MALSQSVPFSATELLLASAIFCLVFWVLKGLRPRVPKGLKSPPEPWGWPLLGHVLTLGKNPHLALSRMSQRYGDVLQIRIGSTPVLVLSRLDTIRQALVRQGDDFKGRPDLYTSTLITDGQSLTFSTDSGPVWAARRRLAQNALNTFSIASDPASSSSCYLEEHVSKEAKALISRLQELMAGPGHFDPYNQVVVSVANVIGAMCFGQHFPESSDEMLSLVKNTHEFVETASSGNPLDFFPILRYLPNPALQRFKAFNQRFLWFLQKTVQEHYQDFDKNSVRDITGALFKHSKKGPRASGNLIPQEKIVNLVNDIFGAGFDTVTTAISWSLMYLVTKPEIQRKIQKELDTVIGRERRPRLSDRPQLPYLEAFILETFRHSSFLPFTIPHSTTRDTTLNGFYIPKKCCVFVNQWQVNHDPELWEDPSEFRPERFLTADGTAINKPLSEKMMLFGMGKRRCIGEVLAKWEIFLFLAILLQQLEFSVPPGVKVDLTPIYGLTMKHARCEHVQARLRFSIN
# [9] = molecular target: T3, DNA repair protein RAD52 homolog (Homo sapiens, UniProt P43351); format: functional, biochemical
# T3 sequence (P43351 whole entry): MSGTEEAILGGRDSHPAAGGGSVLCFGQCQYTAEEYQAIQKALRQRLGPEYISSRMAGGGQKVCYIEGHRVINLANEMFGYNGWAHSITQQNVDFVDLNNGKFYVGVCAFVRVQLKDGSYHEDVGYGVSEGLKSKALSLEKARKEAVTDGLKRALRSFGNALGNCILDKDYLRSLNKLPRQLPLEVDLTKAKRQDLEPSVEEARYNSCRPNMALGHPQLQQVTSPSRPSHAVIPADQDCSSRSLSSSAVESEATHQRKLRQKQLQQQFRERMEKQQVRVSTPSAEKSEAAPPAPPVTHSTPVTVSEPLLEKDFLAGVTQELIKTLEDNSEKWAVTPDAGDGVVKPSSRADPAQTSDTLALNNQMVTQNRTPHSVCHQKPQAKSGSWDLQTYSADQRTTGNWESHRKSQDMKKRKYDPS
# [10] = viability loss in HeLa cells – cytotoxicity control for MgcRacGAP inhibitor project, dose response (AID 624300); format: functional
# [11] = molecular target: T4, Rac GTPase-activating protein 1 (Homo sapiens, UniProt Q9H0H5); assay: blockers of MgcRacGAP-driven Rac1 GTP hydrolysis – biochemical, ADP Hunter fluorescence, primary and confirmatory, confirmation (AID 624330); format: functional
# T4 sequence (Q9H0H5 whole entry): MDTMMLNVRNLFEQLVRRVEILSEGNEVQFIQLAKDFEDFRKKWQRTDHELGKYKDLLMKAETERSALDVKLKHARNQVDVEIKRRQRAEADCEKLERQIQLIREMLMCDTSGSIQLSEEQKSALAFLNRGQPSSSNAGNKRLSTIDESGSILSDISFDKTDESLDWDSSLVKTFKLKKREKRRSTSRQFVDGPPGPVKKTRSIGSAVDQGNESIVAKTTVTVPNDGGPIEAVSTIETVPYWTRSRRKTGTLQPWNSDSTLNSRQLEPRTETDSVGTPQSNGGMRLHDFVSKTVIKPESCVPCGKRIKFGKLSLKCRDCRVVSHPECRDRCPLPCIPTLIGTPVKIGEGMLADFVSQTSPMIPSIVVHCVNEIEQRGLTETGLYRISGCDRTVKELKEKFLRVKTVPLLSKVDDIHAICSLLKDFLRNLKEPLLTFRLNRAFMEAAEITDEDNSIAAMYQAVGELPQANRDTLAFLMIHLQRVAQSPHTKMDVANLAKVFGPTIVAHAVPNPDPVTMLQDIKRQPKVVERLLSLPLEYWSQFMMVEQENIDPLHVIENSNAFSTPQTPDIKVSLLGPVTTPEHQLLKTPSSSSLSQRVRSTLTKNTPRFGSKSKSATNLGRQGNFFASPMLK
# [12] = molecular target: T5, Ubiquitin-conjugating enzyme E2 N (Homo sapiens, UniProt P61088); format: functional;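 further: Dose-response confirmation in a TR-FRET assay detecting UBC13-driven polyubiquitin chain formation, inhibition measured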
# T5 sequence (P61088 whole entry): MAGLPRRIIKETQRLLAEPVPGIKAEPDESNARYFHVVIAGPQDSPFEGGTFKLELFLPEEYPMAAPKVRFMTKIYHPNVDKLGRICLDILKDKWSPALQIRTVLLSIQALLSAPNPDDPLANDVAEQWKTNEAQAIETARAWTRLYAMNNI
# [13] = molecular target: 72 kDa type IV collagenase (Homo sapiens, UniProt P08253); assay: Dose Response validation of uHTS RPN11 inhibitor hits using a MMP-2 Fluorescence assay.; format: functional
# [14] = molecular target: 26S proteasome non-ATPase regulatory subunit 14 (Homo sapiens, UniProt O00487); assay: inhibition of proteasome subunit RPN11 – biochemical, fluorescence polarization, uHTS hits, confirmation (AID 602368); format: functional
# [15] = molecular target: T6, Carboxy-terminal domain RNA polymerase II polypeptide A small phosphatase 1 (Homo sapiens, UniProt Q9GZU7); assay: CTDSP1 inhibitors, concentration-response, biochemical, absorbance readout, ultra-high-throughput screen actives (AID 540297); format: functional
# T6 sequence (Q9GZU7 whole entry): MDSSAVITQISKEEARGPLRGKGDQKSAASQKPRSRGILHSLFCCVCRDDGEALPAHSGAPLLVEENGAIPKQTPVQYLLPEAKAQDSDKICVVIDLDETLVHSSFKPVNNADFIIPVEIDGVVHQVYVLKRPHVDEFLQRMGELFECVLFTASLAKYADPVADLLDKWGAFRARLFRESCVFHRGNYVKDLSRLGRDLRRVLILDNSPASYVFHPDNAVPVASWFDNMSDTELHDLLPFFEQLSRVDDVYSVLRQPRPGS
# Prothrombin = Prothrombin (Bos taurus, UniProt P00735); assay: thrombin protease inhibitors – biochemical, fluorescence polarization, uHTS hits, dose response (AID 602369); format: functional
# [16] = molecular target: T7, DNA repair and recombination protein RAD54-like (Homo sapiens, UniProt Q92698); assay: RAD54 Holliday junction migration blockers – biochemical, fluorescence, cherry-picked samples, dose series, confirmation (AID 651657); format: functional
# T7 sequence (Q92698 whole entry): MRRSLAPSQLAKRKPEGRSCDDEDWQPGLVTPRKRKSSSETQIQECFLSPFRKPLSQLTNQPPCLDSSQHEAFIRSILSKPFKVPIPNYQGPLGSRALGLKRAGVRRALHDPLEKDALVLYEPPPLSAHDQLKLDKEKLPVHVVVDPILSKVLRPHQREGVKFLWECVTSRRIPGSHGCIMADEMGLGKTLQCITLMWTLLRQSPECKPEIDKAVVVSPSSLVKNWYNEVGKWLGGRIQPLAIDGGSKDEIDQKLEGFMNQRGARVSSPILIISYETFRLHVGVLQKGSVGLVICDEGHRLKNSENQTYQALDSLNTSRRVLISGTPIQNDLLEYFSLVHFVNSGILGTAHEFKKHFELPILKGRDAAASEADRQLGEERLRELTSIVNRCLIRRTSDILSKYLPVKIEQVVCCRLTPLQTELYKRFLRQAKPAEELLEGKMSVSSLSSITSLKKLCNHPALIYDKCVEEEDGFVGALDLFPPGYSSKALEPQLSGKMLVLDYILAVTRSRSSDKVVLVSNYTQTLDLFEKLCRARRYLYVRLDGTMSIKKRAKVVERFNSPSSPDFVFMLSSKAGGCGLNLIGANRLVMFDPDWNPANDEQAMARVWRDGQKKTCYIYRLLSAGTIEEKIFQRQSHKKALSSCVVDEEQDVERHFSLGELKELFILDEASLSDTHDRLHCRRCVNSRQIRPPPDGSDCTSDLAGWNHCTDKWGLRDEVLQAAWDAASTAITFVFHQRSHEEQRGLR
# Coagulation factor XII = molecular target: T8, Coagulation factor XII (Homo sapiens, UniProt P00748); format: functional;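 further: activated factor XIIa alpha cleaving a fluorogenic AMC peptide substrate; inhibitor potency from loss of enzyme activity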
# T8 sequence (P00748 whole entry): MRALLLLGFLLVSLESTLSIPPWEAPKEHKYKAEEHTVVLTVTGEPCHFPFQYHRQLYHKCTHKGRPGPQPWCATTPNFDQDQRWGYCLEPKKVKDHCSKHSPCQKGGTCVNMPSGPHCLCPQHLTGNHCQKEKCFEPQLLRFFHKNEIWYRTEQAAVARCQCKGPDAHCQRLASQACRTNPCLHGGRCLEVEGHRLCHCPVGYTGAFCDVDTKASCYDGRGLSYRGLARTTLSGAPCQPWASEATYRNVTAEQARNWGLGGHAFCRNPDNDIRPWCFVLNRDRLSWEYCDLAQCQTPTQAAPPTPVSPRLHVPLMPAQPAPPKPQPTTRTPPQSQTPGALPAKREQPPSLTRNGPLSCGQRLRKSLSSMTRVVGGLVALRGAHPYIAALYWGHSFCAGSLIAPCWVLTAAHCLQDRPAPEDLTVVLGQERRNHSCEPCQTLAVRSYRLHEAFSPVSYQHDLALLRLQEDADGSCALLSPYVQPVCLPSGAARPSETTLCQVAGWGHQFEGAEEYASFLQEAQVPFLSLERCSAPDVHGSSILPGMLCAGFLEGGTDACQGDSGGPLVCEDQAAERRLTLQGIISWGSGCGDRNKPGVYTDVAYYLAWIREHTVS
# [17] = molecular target: DNA (cytosine-5)-methyltransferase 1 (Homo sapiens, UniProt P26358); assay: inhibition of DNA methylation by DNMT1 – biochemical, fluorescent molecular beacon, confirmation (AID 602386); format: functional
# Chain of DNA (cytosine-5)-methyltransferase 1 (P26358 whole entry): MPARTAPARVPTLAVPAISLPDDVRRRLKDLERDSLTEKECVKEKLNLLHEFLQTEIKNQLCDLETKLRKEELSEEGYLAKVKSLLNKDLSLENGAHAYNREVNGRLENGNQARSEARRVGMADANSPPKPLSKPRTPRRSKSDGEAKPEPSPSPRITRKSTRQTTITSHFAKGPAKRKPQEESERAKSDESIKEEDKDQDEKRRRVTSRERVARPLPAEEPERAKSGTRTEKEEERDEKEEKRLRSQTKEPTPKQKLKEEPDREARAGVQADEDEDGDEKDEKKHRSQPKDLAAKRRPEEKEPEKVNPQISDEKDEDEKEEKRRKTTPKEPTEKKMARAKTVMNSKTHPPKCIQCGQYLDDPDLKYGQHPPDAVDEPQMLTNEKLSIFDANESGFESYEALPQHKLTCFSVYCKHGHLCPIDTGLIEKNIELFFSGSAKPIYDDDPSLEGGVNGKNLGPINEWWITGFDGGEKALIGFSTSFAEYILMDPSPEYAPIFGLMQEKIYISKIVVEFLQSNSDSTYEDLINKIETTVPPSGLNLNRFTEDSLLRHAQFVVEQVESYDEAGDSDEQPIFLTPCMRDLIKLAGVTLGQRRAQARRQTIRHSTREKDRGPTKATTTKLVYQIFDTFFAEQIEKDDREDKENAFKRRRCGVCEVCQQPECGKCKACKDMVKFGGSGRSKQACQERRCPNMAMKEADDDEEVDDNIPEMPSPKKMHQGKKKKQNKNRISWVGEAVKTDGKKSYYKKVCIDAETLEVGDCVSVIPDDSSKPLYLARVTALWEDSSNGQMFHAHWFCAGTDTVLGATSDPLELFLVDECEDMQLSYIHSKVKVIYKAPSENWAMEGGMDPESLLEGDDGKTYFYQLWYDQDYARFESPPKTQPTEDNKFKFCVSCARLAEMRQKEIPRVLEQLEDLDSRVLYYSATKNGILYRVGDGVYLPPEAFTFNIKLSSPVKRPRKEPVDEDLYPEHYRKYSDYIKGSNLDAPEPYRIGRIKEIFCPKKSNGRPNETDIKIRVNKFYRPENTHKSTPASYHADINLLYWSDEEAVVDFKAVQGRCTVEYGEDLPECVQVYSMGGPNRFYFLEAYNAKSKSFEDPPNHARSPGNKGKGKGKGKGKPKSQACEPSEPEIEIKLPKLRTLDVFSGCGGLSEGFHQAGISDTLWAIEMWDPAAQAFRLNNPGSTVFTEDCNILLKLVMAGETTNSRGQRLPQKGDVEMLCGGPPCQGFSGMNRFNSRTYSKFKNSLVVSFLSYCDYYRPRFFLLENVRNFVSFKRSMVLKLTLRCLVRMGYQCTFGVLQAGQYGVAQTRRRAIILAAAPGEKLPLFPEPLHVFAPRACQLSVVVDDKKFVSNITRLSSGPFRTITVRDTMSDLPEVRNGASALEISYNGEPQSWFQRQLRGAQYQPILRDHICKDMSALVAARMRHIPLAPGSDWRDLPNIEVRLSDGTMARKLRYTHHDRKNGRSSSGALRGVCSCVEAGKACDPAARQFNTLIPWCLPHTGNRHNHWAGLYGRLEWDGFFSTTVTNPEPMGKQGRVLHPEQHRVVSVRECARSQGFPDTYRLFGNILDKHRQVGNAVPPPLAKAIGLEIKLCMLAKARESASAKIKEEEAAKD
# Chain of Cytochrome P450 2C9 (P11712 whole entry): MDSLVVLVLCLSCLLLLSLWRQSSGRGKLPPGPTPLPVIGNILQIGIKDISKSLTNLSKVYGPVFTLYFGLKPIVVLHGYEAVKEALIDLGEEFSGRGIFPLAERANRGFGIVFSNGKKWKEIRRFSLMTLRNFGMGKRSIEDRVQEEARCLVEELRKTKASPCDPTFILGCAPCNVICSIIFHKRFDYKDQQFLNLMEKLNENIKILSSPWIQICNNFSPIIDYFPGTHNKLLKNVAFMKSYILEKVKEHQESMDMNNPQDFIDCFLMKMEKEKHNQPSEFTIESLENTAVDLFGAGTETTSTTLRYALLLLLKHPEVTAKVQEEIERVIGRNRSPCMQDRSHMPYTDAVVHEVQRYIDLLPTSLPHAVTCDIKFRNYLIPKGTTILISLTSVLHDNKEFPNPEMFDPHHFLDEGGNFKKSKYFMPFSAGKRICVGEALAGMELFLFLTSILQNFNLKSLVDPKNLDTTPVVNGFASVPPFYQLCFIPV
# Chain of 72 kDa type IV collagenase (P08253 whole entry): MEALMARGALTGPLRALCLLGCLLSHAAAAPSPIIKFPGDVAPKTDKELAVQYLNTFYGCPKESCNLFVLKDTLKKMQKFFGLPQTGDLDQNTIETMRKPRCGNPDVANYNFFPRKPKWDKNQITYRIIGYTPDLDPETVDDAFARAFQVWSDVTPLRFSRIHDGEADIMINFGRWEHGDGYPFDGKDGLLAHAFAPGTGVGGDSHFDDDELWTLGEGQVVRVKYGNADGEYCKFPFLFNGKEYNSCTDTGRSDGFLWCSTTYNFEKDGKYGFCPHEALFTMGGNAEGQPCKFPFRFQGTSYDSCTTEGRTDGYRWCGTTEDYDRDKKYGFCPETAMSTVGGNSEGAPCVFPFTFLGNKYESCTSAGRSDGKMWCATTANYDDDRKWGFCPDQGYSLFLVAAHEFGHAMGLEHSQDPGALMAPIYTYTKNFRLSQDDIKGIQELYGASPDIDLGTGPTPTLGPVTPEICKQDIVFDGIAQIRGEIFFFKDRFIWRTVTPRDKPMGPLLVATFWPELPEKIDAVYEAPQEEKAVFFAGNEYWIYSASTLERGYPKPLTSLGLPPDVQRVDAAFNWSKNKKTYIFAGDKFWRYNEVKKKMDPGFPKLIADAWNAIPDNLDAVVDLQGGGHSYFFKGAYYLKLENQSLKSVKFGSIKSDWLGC
# Chain of 26S proteasome non-ATPase regulatory subunit 14 (O00487 whole entry, the tested form may be a part): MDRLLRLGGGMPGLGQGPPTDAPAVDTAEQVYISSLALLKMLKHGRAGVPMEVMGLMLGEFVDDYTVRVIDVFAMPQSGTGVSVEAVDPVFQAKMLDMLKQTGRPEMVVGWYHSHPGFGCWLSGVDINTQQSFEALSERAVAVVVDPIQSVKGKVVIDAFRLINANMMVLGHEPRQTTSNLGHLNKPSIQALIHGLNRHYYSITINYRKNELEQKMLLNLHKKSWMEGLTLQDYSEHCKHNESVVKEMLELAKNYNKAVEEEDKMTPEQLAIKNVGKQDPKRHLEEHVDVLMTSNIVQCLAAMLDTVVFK
compound,measurement,setting,value
CCCCCCCCN1C(=O)[C@H](CC(=O)NCc2cccs2)C[C@@]2(C(=O)OCC)CCCC=C12,AC50,[1],16.8 µM (active)
same,AC50,[2],17 µM (active)
same,AC50,[3],22.7 µM (active)
same,AC50,[4],25.1 µM (active)
CCOc1ccc(NC(=O)c2c(NC(=O)CNCCN3CCOCC3)sc3c2CCC3)cc1,EC50,[5],1.74 µM (active)
same,EC50,[6],> 30 µM (not active)
same,EC50,[7],1.95 µM (active)
same,EC50,Streptokinase A,> 150 µM (not active)
same,EC50,Streptococcus,59.5 µM (active)
same,AC50,[8],75.1 µM (active)
O=C(CSc1cccc2cccnc12)OCC(=O)c1ccccc1,AC50,Cytochrome P450 2C9,inconclusive
same,AC50,Cytochrome P450 1A2,20 µM (inconclusive)
same,AC50,[8],92.5 µM (active)
CN1CCN(CCCN2c3ccccc3Sc3ccc(Cl)cc32)CC1 [PROCHLORPERAZINE EDISYLATE],AC50,[9],17.6 µM (active)
same,CC50,[10],65 µM (active)
same,IC50,[11],80 µM (active)
same,IC50,[12],> 20 µM (inactive)
Cc1ccc(CSCC(=O)N/N=C/c2ccc(OCC(=O)Nc3ccc(C)cc3)cc2)cc1,IC50,[13],> 100 µM (inactive)
same,IC50,[14],11.9 µM (active)
same,IC50,[15],3.43 µM (active)
same,IC50,Prothrombin,96.9 µM (active)
CN(C)CCNc1cc(-c2ccncc2)nc2ccccc12,AC50,[9],4.09 µM (active)
same,AC50,[16],17.2 µM (active)
CCOc1cc2nc(-c3ccc(OC)c(OC)c3)nc(NCCCN3CCOCC3)c2cc1OC,AC50,[8],130 µM (active)
same,AC50,[16],5.2 µM (active)
COc1ccc(NC(=O)Nc2ccc3c(c2)CC(=O)N([C@@H](C)CO)C[C@@H](C)[C@H](CN(C)Cc2ccc(C(F)(F)F)cc2)O3)cc1,AC50,[1],6.8 µM (active)
same,AC50,[2],2.67 µM (active)
same,AC50,[3],27 µM (active)
same,AC50,[4],23.2 µM (active)
C=C(C)C(=O)Nc1cccc(C2=NOC3(C2)C[C@H](C(N)=O)N(C(=O)CC)C3)c1 (stereo partly specified),IC50,Coagulation factor XII,> 50 µM (inactive)
same,IC50,[17],4.32 µM (active)
